# According to US6090786A, “Serine proteases, their activity and their synthetic inhibitors” (priority 1994, dated 2000):
# Key:
# [1] = In vivo testing in rabbits, single intravenous injection
# Protocol: In order to test the effect of the inhibitors in vivo rabbits were injected with the inhibitor and their DPPIV activity was tested using Gly-Pro-4-Methoxy-2-naphthylamide as the substrate.
# 4 Rabbits received a single 5 ml intravenous-(ear vein) injection of physiological saline cobtaining 0 (control), 1 mg, 5 mg and 10 mg AB 3, respectively. Blood samples were taken from the central ear artery 5 min before injection and at different points of time, directly after the injection, after 4 hrs and after 1, 2, 3, 6 and 13 days.
# Counts of white and red blood cells and platelets, serum DPPIV activity and serum bilirubin, GOT, GPT, GT, LDH, creatinine, Na, K, CK and urea were evaluated.
# [2] = Functional stability of DPPIV inhibitors in human citrated plasma; type: in vitro ADME; conditions: 37° C.
# Protocol: (§1) To determine the functional stability of the inhibitors in the reaction medium, a 10 mM stock solution in DMSO was diluted 50-fold in 50 mM TRIS buffer pH 8.3 and incubated at 37° C. To determine the functional stability in plasma, a 50 mM stock solution in DMSO was diluted 50-fold in fresh or freshly frozen citrated plasma from a healthy donor and incubated at 37° C. At specific time intervals an aliquot was withdrawn, added to an equal volume of DPPIV diluted in buffer or to an equal volume of plasma and the kinetics of inactivation were determined as described under b). The reduction in observed pseudo-first order rate constant is a measure for the amount of functional inhibitor lost during the incubation and allowed to estimate the half-life of the inhibitors in buffer and plasma. The following table lists the results.
# [3] = Functional stability of DPPIV inhibitors in the reaction medium (buffer); type: physicochemical; conditions: 50 mM TRIS buffer pH 8.3, 37° C.
# Protocol: as §1
structure (smiles),measurement,setting,value
"Cl.O=C([C@@H]1CCCN1)N1CCCC1P(=O)(Oc1ccccc1)Oc1ccccc1 (stereo partly drawn) [Pro-Pro^P -(OPh)2, Diphenyl (S,R)-1-[(S)-prolyl]pyrrolidine-2-phophonate hydrochloride]",death of the animal,[1]; rabbit receiving 10 mg i.v.,died after 11 days
same,biochemical and hematological parameters,"[1]; rabbit receiving 10 mg i.v., at day 6",normal
same,"cell counts (white and red blood cells, platelets) and serum biochemical parameters","[1]; rabbits, single i.v. injection of 1 mg, 5 mg or 10 mg, up to 13 days, DPPIV enzyme activity excepted",No differences
same,t1/2 in plasma,[2],4.1 ± 0.3 h
same,t1/2 in buffer,[3],3.5 ± 0.1 h
